Consider 2 compounds from patent publication US12459931B2, “Benzothiophene derivative regulator, preparation method therefor and use thereof” (Shanghai Hansoh Biomedical Co., Ltd., priority 2019, dated 2025).

pIC50: −log10 of the molar value.

Data set [1] is described as follows: Stability assay in liver microsome in vitro. The format is in vitro ADME, Mouse. How it is done: IV. Stability Assay in Liver Microsome In Vitro
To evaluate the metabolic stability of the compounds of the present invention in liver microsome in vitro.
Formulation of the working solution of the compound: 2 μL of the stock solution of the compound was added to 998 μL of phosphate buffer, and the final concentration was 20 μM.
Formulation of the working solution of the control compound (7-hydroxycoumarin): The formulation was consistent with that of the compound. • 3.2. Formulation of the working solution of liver microsome
78.1 μL of 20 mg/mL microsome was diluted to 2.5 mL with 100 mM phosphate buffer and mixed well, and the final concentration was 0.625 mg/mL. • 3.3. Formulation of NADPH and UDPGA
33.3 mg of NADPH and 25.8 mg of UDPGA were weighed respectively, followed by the addition of 2 mL of 100 mM phosphate buffer. The final concentrations were 20 mM. • 3.4. Formulation of the channel-forming reagent (Alamethicin)
1 mg of Alamethicin was weighed, to which 200 μL of DMSO was added to obtain a 5 mg/mL solution. 10 μL of this solution was added to 990 μL of phosphate buffer (pH 7.4), and the final concentration was 50 μg/mL. • 3.5. Formulation of the reaction stop solution
Stop solution: Cold acetonitrile containing 100 ng/mL labetalol hydrochloride and 400 ng/mL tolbutamide was used as internal standards, and stored in a refrigerator at 2 to 8° C. • 3.6. Incubation procedure
400 μL of the formulated liver microsome, 25 μL of the working solution of the compound […] and 25 μL of Alamethicin (50 μg/mL) were added to a 96-well plate successively, which was then pre-incubated at 37° C. for 10 min. 50 μL of the formulated NADPH/UDPGA was added to initiate the reaction, and the plate was incubated at 37° C. The total volume of the reaction system was 500 μL. The final contents of the components were as follows:
[…] The resulting sample was centrifuged at 4000 g for 10 min, and the supernatant was collected for LC-MS/MS analysis.

The target of data set [2] is 5-HT2A receptor (Homo sapiens (Human), UniProt P28223). In words: Effect on calcium ion mobility in cells stably expressing 5-HT2A receptors (Flp-In-CHO-5HT2A, FLIPR). Conditions: Flp-In-CHO-5HT2A cells, 5HT as agonist. The format is cell-based. How it is done: To determine the inhibitory effect of the compounds on 5-HT2A receptor.
Probenecid and BSA were added fresh on the day of the experiment.
The calcium signal values were determined by FLIPR. […] The percent inhibition rate and ten-point concentration data were fitted to the parametric nonlinear logistic equation by using GraphPad prism to calculate the IC50 values of the compound.

Data set [3] has as its system Rats F344. As to the kind of experiment: Pharmacodynamic model of active escape experiment in rats. The format is in vivo. Conditions: oral, dose 1 mg/kg, one hour before the test. How it is done:
V. Pharmacodynamic Model of Active Escape Experiment in Rats
To evaluate the anti-schizophrenic effect of the compounds using the pharmacodynamic model of the active escape experiment in rats.
4. Formulation of the Vehicle and Compounds: • 4.1 Vehicle (0.5% CMC-Na+1% Tween80)
A certain mass (such as 1.0 g) of CMC-Na was weighed into a glass bottle, a certain volume (such as 200 mL) of purified water was added, and the resulting mixture was stirred to disperse evenly. 1% (v/v) Tween 80 was added according to the solution volume, and the resulting mixture was stirred overnight to obtain a homogeneous clear solution, which was stored at 2 to 8° C. for later use. • 4.2 Formulation of the compounds: […]
A formula amount of the compound was weighed, followed by the addition of a formula volume of 0.5% CMC-Na+1% Tween 80 solution. The compound solution was formulated before the administration, stored at 2 to 8° C., and used within 4 days.
The day before the compound screening test, a baseline test was performed. The test procedure was the same as 5.1.1 to 5.1.3, and the number of the baseline test was 20. The animals whose number of avoids reached 16 (80%) were grouped according to the number of avoids, 10 animals per group. The first group was administered with the vehicle orally, and the other groups were administered with the corresponding test compounds according to the experimental design. • 5.3 Compound screening test
The compound was administered orally (5 mL/kg) one hour before the test;
The test procedure was the same as 5.1.1 to 5.1.4, and the number of the test was 20.
The following data was collected by the software for data analysis: • Number of avoids of the animal; • Number of escape failures of the animal; • Escape latency of the animal;
All measurement data were expressed as mean±standard error (Mean±SEM), and analyzed by Graphpad 6 statistical software. The difference was considered to be significant when p<0.05.

A short description of data set [4]: Toxicity test by repeated intragastric administration for 14 days in SD rats (with toxicokinetics). The format is in vivo, Sprague-Dawley (SD) rats. Conditions: both sexes, Sprague-Dawley, rat, in vivo, po; SD rats, intragastric once a day for two weeks; read-out: Maximum tolerated dose (MTD). The text has this: (§1) VI. Toxicity Test by Repeated Intragastric Administration for 14 Days in SD Rats
(§2) The objective of this study was to investigate the possible toxicity of compounds after repeated intragastric administration to SD rats for 14 days. • 6.2 Experimental materials and instruments: • 6.2.1 Test compound
(§3) Test compound 1: the compound of Example 42. • 6.2.2 Vehicle:
(§4) Name: 0.5% CMC-Na (1% tween80) aqueous solution • 6.2.3 Animal information:
(§5) Species & strain: Sprague-Dawley (SD) rats
(§6) […] were divided into […] according to their sex and body weight. 40 rats were used for toxicology study (groups 1 to 4, 5 rats/sex/group), and 24 rats were used for toxicokinetics study (groups 5 to 8, 3 rats/sex/group). The animals in groups 1 and 5 were intragastrically administered with 0.5% CMC-Na (1% tween80) aqueous solution as the vehicle control groups. The animals in groups 2 and 6, 3 and 7, 4 and 8 were intragastrically administered with the compound of Example 42 at a dose of 2, 10 and 30 mg/kg, respectively. The animals were administered once a day for 14 consecutive days. The administration volumes were 10 mL/kg. During the experiment, clinical observation, body weight, food intake, body temperature, clinicopathological indicators (blood cell count, coagulation function, blood biochemistry) and toxicokinetics were monitored. All animals were euthanized on D15. During the experiment, the animals in groups 1 to 4 were subjected to gross anatomical observation. Histopathological examination was carried out on abnormal tissue and brain, kidney, adrenal gland, lung and bronchi, prostate, testis and epididymis. • 6.4 List of test data • 6.4.1 Dying/death

For data set [5], the system named is SD rats. Described as above. The format is in vivo, Sprague-Dawley (SD) rats.
Text: as §1, §2, §3, §4, §5, §6

The mark [6] stands for this setting: SD rats, 2, 10 or 30 mg/kg, two weeks.

5-HT2A receptor, sequence (P28223 whole entry): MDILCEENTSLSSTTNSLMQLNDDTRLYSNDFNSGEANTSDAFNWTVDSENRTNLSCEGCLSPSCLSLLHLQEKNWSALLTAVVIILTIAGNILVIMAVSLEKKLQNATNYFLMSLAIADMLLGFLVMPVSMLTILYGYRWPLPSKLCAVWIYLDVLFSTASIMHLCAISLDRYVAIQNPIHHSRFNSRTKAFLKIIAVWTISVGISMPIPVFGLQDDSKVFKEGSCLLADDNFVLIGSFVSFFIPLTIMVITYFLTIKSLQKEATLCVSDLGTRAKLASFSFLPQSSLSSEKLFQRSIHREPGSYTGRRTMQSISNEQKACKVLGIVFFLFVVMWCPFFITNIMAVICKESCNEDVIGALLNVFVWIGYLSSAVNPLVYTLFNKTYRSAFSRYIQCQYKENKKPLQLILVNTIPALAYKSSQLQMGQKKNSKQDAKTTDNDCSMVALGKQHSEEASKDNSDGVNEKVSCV

For the compound `CC(C)(O)C(=O)N[C@H]1CC[C@H](CCN2CCN(c3cccc4sccc34)CC2)CC1` [Example 41, N-(Trans-4-(2-(4-(benzo[b]thiophen-4-yl)piperazin-1-yl)ethyl)cyclohexyl)-2-hydroxy-2-methylpropanamide], in data set [1] (CD-1, liver microsomes, pH 7.4, Mouse liver microsome 0.5 mg/mL, compound 1 μM, NADPH/UDPGA, read-out: Half life (t1/2)), the half-life at 1 μM was found to be 2.72 h. The microsomal CLint at 1 μM in data set [1] (CD-1, liver microsomes, pH 7.4, Mouse liver microsome, note: Slow <8.8, Rapid >48.0, read-out: Intrinsic clearance rate (CLint)) is 21.3 µL/min/mg. The “Remaining (%, 120 min)” value in data set [1] (Mouse liver microsome, 120 min) was determined as 80.6%.
In the case of `O=C(N[C@H]1CC[C@H](CCN2CCN(c3cccc4sccc34)CC2)CC1)C1(O)CC1` [Example 42, N-(Trans-4-(2-(4-(benzo[b]thiophen-4-yl)piperazin-1-yl)ethyl)cyclohexyl)-1-hydroxycyclopropane-1-carboxamide], in data set [2], the pIC50 was 8.47. In data set [3], this compound came in with a CAR value of 46.5% and an EF of 0%. The maximal tolerated dose (MTD) at 14 days in data set [4] stood at 30 mg/kg. Besides, in data set [5] (setting [6]), the “Main target organs for toxicity” value was “the lungs and adrenal glands”; the “Main toxic responses: blood counts” value is “WBC, Lymph, Retic and PLT are decreased”; the “Main toxic responses: body weight, food intake and body temperature” value is “body weight, food intake and body temperature are decreased”; the “Main toxic responses: coagulation function” value was “FIB wis decreased, and APTT is shortened”. The Accumulation result in data set [5] (SD rats, 14 days intragastric, 2, 10 or 30 mg/kg) is “no accumulation”. Further, in data set [5] (SD rats, female and male, D1 and D14), the “Average exposure versus dose” value is “increased with the increase of the dose”.
